For the assay, the system named is lymphoblastoid cell lines. Kind of assay: Cyclic AMP accumulation in lymphoblastoid cell lines in response to another GPCR agonist (specificity control). In kind it is cell-based, human. Conditions: PGE2 1 μM + forskolin 10 μM, IBMX 200 μM pre-incubation, 10 min, fold-change over forskolin/IBMX alone. On the procedure: Reactions were terminated by pelleting the cells, aspiration of the medium and addition of 100 μl of cold 7.5% (wt/vol) trichloroacetic acid (TCA). Cyclic AMP content in TCA extracts was determined by radioimmunoassay and normalized to the number of cells per well. […] Results presented for each subject represents the mean and standard error of at least ten replicates. Standard error and P-values for pooled results were computed across individuals (FIG. 3).

As for `CCCCC[C@H](O)/C=C/[C@H]1[C@H](O)CC(=O)[C@@H]1C/C=C\CCCC(=O)O` [prostaglandin E2], the “cAMP accumulation in response to agonist, 7q36.3 duplication carriers compared to controls” value (from here on “cAMP accumulation … compared to controls”) is “no group difference”. Moreover, where the note is “listed as PGE2”, the “cAMP accumulation … compared to controls” value was “No difference”. Under “listed as Prostaglandin E2”, the “cAMP accumulation … compared to controls” value is given as “No significant differences”.

The record behind these values is patent US20140171371A1, “Compositions And Methods For The Diagnosis of Schizophrenia” (The Trustees of Columbia University in the City of New York, priority 2011, published 2014).
